Experimental data as given in PMC6904214, “A novel lineage of candidate pheromone receptors for sex communication in moths” (eLife, 2019).

Target: T1, SlitOR5/SlitOrco (Spodoptera littoralis, UniProt A0A5J6NJF6)
T1 construct: full-length open reading frames (SlitOr5 1191 bp) in pCS2+, cRNAs co-injected in Xenopus oocytes; heteromer with co-receptor Orco; with Odorant receptor coreceptor
T1 sequence (A0A5J6NJF6 1-397): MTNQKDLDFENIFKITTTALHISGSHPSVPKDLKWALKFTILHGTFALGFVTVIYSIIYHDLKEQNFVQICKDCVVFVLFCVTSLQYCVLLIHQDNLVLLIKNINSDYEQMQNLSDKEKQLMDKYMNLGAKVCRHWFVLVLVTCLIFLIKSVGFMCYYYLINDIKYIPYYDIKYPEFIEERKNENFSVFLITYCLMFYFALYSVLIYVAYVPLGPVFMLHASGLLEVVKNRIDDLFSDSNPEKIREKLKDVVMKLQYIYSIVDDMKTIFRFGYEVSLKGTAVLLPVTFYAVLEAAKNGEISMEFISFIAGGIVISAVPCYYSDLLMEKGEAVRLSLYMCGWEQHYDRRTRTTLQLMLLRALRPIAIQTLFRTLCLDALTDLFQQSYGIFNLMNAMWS
T1 sequence (B6C755 1-473 partner): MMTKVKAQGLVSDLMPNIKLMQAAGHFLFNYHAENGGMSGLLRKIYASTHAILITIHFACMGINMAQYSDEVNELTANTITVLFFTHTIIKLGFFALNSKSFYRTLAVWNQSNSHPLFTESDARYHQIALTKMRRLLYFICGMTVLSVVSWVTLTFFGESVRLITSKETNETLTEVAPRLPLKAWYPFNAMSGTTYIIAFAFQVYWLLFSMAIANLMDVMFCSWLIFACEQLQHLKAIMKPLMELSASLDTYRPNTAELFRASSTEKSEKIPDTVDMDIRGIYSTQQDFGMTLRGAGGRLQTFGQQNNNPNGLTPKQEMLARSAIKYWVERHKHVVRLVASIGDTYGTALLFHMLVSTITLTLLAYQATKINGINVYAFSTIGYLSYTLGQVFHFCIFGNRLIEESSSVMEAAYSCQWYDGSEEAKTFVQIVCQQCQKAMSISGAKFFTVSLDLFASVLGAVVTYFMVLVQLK
Assay: two-electrode voltage clamp, inward current in Xenopus oocytes
Type: cell-based

Work on CC/C=C/C=C\CCCCCCCCOC(C)=O [(Z,E)-9,11-14:OAc, (Z,E)-9,11-tetradecadienyl acetate] yielded an EC50 of 171 nM.
